Consider 41 compounds from ChEMBL document CHEMBL1141107, “A novel series of non-carboxylic acid, non-hydantoin inhibitors of aldose reductase with potent oral activity in diabetic rat models: 6-(5-chloro-3-methylbenzofuran-2-sulfonyl)-2H-pyridazin-3-one and congeners” (J Med Chem, 2005).

Test [1] has as its target Aldo-keto reductase family 1 member B1 (Homo sapiens, UniProt P15121). The test can be described thus: In vitro inhibitroy concentration against Aldose reductase incubated at 24 degree C for 15 minutes in pH 7.0.
Test [2] has as its system Rattus norvegicus. Description: Inhibition of sorbitol accumulation in diabetic rat by acute test dosed at 10 mg/kg. The class given is functional.
Test [3] deals with Rattus norvegicus. Description: Inhibition of fructose accumulation in diabetic rat after oral gavage administration incubated at RT for 60 minutes in pH 4.5 by acute test dosed at 10 mg/kg. As to conditions: 1 h. The class given is functional.
Test [4] concerns Rattus norvegicus. Description: Inhibition of sorbitol accumulation in diabetic rat by acute test dosed at 20 mg/kg. Format: functional.
Test [5] deals with Rattus norvegicus. The test can be described thus: Inhibition of fructose accumulation in diabetic rat after oral gavage administration incubated at RT for 60 minutes in pH 4.5 by acute test dosed at 20 mg/kg. The class given is functional. Particulars: 1 h.
Test [6] has as its system Rattus norvegicus. Description: Inhibition of fructose accumulation in diabetic rat after oral gavage administration, pH 4.5 by chronic test dosed at 20 mg/kg. The class given is functional.
In test [7] the test system is Rattus norvegicus. Description: Inhibition of sorbitol accumulation in diabetic rat by chronic test dosed at 20 mg/kg. Format: functional.
The test system of test [8] is Rattus norvegicus. The test can be described thus: Inhibition of sorbitol accumulation in diabetic rat by chronic test dosed at 10 mg/kg. The class given is functional.
Test [9] concerns Rattus norvegicus. The test can be described thus: Inhibition of fructose accumulation in diabetic rat after oral gavage administration, pH 4.5 by chronic test dosed at 10 mg/kg. Format: functional.

By IC50 is commonly meant the concentration needed to halve the response being measured. Higher therefore signals weaker potency in that assay. With `O=S(=O)(Cc1ccccc1C(F)(F)F)c1ccc(O)nn1`, half-maximal inhibition in [1] (IC50) was put at 500 nM.
A word on the inhibition in vivo: it is the change of the read-out against control, counted positive when it falls. On to `Cc1ccc2oc(S(=O)(=O)c3ccc(O)nn3)c(C)c2c1`, for which, in test [1], inhibition was half-maximal at 13 nM (IC50). In addition, the inhibition in vivo at 10 mg/kg in the test on Rattus norvegicus [2] stood at 21%; in the test with Rattus norvegicus [3], 18%.
Turning to `O=c1ccc(S(=O)(=O)c2cc3cc(Cl)ccc3o2)n[nH]1`, the inhibition in vivo at 10 mg/kg in the test with Rattus norvegicus [3] stood at 39%.
Turning to `O=c1ccc(S(=O)(=O)c2oc3ccccc3c2-c2ccccc2)n[nH]1`, in test [1], the IC50 is 23 nM.
In test [1], `O=c1ccc(S(=O)(=O)Cc2cccc(C(F)(F)F)c2F)n[nH]1` registered an IC50 of 44 nM. For the same compound, the inhibition in vivo at 20 mg/kg in the test with Rattus norvegicus [4] was found to be 61%; with Rattus norvegicus [5] it was 56%.
Compound `O=c1ccc(S(=O)(=O)c2ccc(C(F)(F)F)cc2)n[nH]1` yielded an IC50 in test [1] of 360 nM. Also, the inhibition in vivo at 10 mg/kg with Rattus norvegicus [2] came to 44%; in the test on Rattus norvegicus [3], 10%. Also, the figures for the inhibition in vivo at 20 mg/kg with Rattus norvegicus [4] and in the test on Rattus norvegicus [5] were 67% and 24%, respectively.
In test [1], `O=S(=O)(c1ccc(O)nn1)c1oc2ccccc2c1-c1ccc(F)cc1` showed an IC50 of 49 nM. Also, the figures for the inhibition in vivo at 10 mg/kg with Rattus norvegicus [2] and with Rattus norvegicus [3] were 66% and 50%, respectively.
As to `O=c1ccc(S(=O)(=O)c2cc3cccc(Cl)c3[nH]2)n[nH]1`, in [1], the midpoint of inhibition, the IC50, lay at 450 nM. In addition, the inhibition in vivo at 20 mg/kg was 40% in the test with Rattus norvegicus [4] and 44% in the test on Rattus norvegicus [5].
In test [1], `COc1ccc2oc(S(=O)(=O)c3ccc(=O)[nH]n3)cc2c1` had an IC50 of 230 nM. Further, the inhibition in vivo at 20 mg/kg in the test with Rattus norvegicus [4] was 49%; with Rattus norvegicus [5], 34%.
Regarding `O=c1ccc(S(=O)(=O)c2cc3cc(Cl)cc(Cl)c3o2)n[nH]1`, the IC50 in test [1] is 87 nM. Moreover, the inhibition in vivo at 10 mg/kg in the test on Rattus norvegicus [2] was 32%; in the test on Rattus norvegicus [3], 39%.
Consider `O=c1ccc(S(=O)(=O)c2cc3ccc(Cl)cc3[nH]2)n[nH]1`, for which the IC50 in test [1] turned out to be 645 nM.
`O=c1ccc(S(=O)(=O)Cc2c(F)cccc2Cl)n[nH]1` gave an IC50 in test [1] of 26 nM. Also, the results for the inhibition in vivo at 20 mg/kg with Rattus norvegicus [4] and with Rattus norvegicus [5] were 42% and 45%, respectively.
The matching figures for `O=c1ccc(S(=O)(=O)c2cc3ccccc3s2)n[nH]1`: 180 nM, 46% and 22%.
Consider `O=S(=O)(c1ccc(O)nn1)c1ccc(F)cc1Cl`, for which the inhibition in vivo at 10 mg/kg with Rattus norvegicus [2] was 95%; with Rattus norvegicus [3] it was 87%. Also, the values for the inhibition in vivo at 20 mg/kg in the test on Rattus norvegicus [4] and in the test on Rattus norvegicus [5] were 106% and 97%, respectively.
Compound `O=S(=O)(Cc1cccc(F)c1F)c1ccc(O)nn1` registered an IC50 in test [1] of 257 nM. The inhibition in vivo at 20 mg/kg came to 82% with Rattus norvegicus [4] and 51% with Rattus norvegicus [5].
On to `O=S(=O)(c1ccc(O)nn1)c1ccc(Br)cc1F`, for which the results for the inhibition in vivo at 10 mg/kg with Rattus norvegicus [2] and with Rattus norvegicus [3] were 81% and 67%, respectively.
As to `O=S(=O)(Cc1cccc(C(F)(F)F)c1)c1ccc(O)nn1`, in test [1], the concentration for half-maximal inhibition (IC50) was 72 nM. Besides, the inhibition in vivo at 20 mg/kg in the test on Rattus norvegicus [6] turned out to be 42%; with Rattus norvegicus [4] it was 88%; with Rattus norvegicus [7], 65%; with Rattus norvegicus [5] it was 70%.
For the compound `Cc1ccc2sc(S(=O)(=O)c3ccc(O)nn3)cc2c1`, inhibition in [1] was half-maximal at 160 nM (IC50). In the test with Rattus norvegicus [5], the inhibition in vivo at 20 mg/kg was 7%.
On to `O=c1ccc(S(=O)(=O)Cc2cccc(Cl)c2Cl)n[nH]1`, for which it took 35 nM to reach half-maximal inhibition in test [1] (IC50). Further, the inhibition in vivo at 20 mg/kg is 65% with Rattus norvegicus [4] and 48% in the test with Rattus norvegicus [5].
For the compound `CCc1c(S(=O)(=O)c2ccc(O)nn2)oc2ccc(Cl)cc12`, in test [1], the IC50 was 6 nM. Besides, the inhibition in vivo at 10 mg/kg is 48% in the test on Rattus norvegicus [8] and 24% with Rattus norvegicus [9].
In [1], `O=c1ccc(S(=O)(=O)Cc2ccc(Br)cc2F)n[nH]1` registered an IC50 of 667 nM.
Same read-out and setting: the result for `O=c1ccc(S(=O)(=O)c2cc3cc(Cl)cc(Cl)c3[nH]2)n[nH]1` reads 200 nM; that for `O=c1ccc(S(=O)(=O)c2cc3cc4c(cc3[nH]2)OCO4)n[nH]1`, 3800 nM.
With `O=S(=O)(Cc1ccccc1F)c1ccc(O)nn1`, in [1], the IC50 is 422 nM.
In the case of `O=c1ccc(S(=O)(=O)c2ccc(Cl)cc2)n[nH]1`, the IC50 in [1] is 380 nM. The inhibition in vivo at 10 mg/kg came out at 65% with Rattus norvegicus [2] and 52% in the test on Rattus norvegicus [3].
In test [1], `O=c1ccc(S(=O)(=O)c2cc3cc(Cl)ccc3[nH]2)n[nH]1` showed a 50% inhibitory concentration (IC50) of 1100 nM.
Compound `O=S(=O)(Cc1ccccc1Cl)c1ccc(O)nn1` returned an IC50 in test [1] of 118 nM.
Still for that read-out and setting: as for `O=S(=O)(c1cccc(Cl)c1)c1ccc(O)nn1`, the figure is 240 nM.
Regarding `O=c1ccc(S(=O)(=O)c2cc3ccccc3o2)n[nH]1`, in the test on Rattus norvegicus [3], the inhibition in vivo at 10 mg/kg was 34%.
For `Cc1c(S(=O)(=O)c2ccc(O)nn2)oc2cc(Cl)ccc12`, in test [1], the IC50 turned out to be 190 nM. The values for the inhibition in vivo at 10 mg/kg in the test with Rattus norvegicus [2] and in the test on Rattus norvegicus [3] were 40% and 28%, respectively.
In turn, `Cc1c(S(=O)(=O)c2ccc(O)nn2)oc2ccccc12` returned an IC50 in test [1] of 140 nM. Further, the inhibition in vivo at 10 mg/kg in the test with Rattus norvegicus [3] amounted to 43%. Moreover, the inhibition in vivo at 20 mg/kg in the test with Rattus norvegicus [5] came out at 56%.
In the case of `O=S(=O)(c1ccc(O)nn1)c1ccccc1Cl`, the inhibition in vivo at 10 mg/kg came out at 96% in the test with Rattus norvegicus [2] and 68% in the test with Rattus norvegicus [3]. For the same compound, the inhibition in vivo at 20 mg/kg with Rattus norvegicus [4] stood at 101%; in the test on Rattus norvegicus [5], 81%.
`O=c1ccc(S(=O)(=O)c2ccccc2F)n[nH]1` yielded an IC50 in [1] of 540 nM. In addition, the inhibition in vivo at 10 mg/kg with Rattus norvegicus [2] was 79%; in the test with Rattus norvegicus [3] it was 34%. The results for the inhibition in vivo at 20 mg/kg in the test with Rattus norvegicus [4] and in the test with Rattus norvegicus [5] were 91% and 56%, respectively.
In [1], `O=c1ccc(S(=O)(=O)Cc2c(Cl)cccc2Cl)n[nH]1` had an IC50 of 52 nM. Also, the inhibition in vivo at 10 mg/kg in the test with Rattus norvegicus [2] came to 42%; in the test on Rattus norvegicus [3], 24%.
Compound `O=c1ccc(S(=O)(=O)c2oc3ccc(Cl)cc3c2-c2ccccc2)n[nH]1` returned a half-inhibitory concentration (IC50) in [1] of 34 nM. Also, the inhibition in vivo at 20 mg/kg in the test with Rattus norvegicus [4] stood at 27%; in the test with Rattus norvegicus [5], 20%.
As for `O=S(=O)(c1ccc(Cl)c(Cl)c1)c1ccc(O)nn1`, the inhibition in vivo at 10 mg/kg with Rattus norvegicus [2] amounted to 84%; in the test on Rattus norvegicus [3], 60%. The inhibition in vivo at 20 mg/kg with Rattus norvegicus [4] was 98%; with Rattus norvegicus [5] it was 85%.
In test [1], `O=c1ccc(S(=O)(=O)c2cc3ccccc3[nH]2)n[nH]1` returned a half-inhibitory concentration (IC50) of 590 nM. Moreover, the results for the inhibition in vivo at 10 mg/kg with Rattus norvegicus [2] and with Rattus norvegicus [3] were 75% and 58%, respectively. Moreover, the inhibition in vivo at 20 mg/kg with Rattus norvegicus [6] amounted to 50%; in the test with Rattus norvegicus [4], 100%; in the test with Rattus norvegicus [7], 67%; in the test with Rattus norvegicus [5], 82%.
In test [1], `O=S(=O)(Cc1cccc(Cl)c1F)c1ccc(O)nn1` gave a half-maximal inhibitory concentration (IC50) of 54 nM. In addition, the inhibition in vivo at 20 mg/kg was 74% in the test with Rattus norvegicus [4] and 64% in the test on Rattus norvegicus [5].
`O=c1ccc(S(=O)(=O)c2cc3ccc(F)cc3[nH]2)n[nH]1` yielded an IC50 in test [1] of 1400 nM.
Same read-out and setting: as for `O=c1ccc(S(=O)(=O)c2ccc(F)cc2F)n[nH]1`, the figure is 870 nM.
With `O=c1ccc(S(=O)(=O)c2cccc(C(F)(F)F)c2)n[nH]1`, the IC50 in test [1] was 175 nM. Moreover, the inhibition in vivo at 20 mg/kg with Rattus norvegicus [4] was determined as 45%; in the test on Rattus norvegicus [5] it was 17%.
